Measurements reported in PubChem BioAssay AID2060497 (Molecular Pharmacology Branch, DTP, NCI, 2025).

Tested on: 317291-083-R-J1-PDC complex spheroids, viability
Experiment: Anticancer human tumor 317291-083-R-J1-PDC patient-derived soft tissue sarcoma cell line growth inhibition [GQUAD]
Details: for IC50: curve of first compound; for viability, T/C: stronger effect = lower value
Method in brief: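 Viability of tumor cells grown as complex spheroids with endothelial and stromal cells, exposed to drug combinations. Top concentration at or near clinical Cmax (else 10 microM), diluted in half-log increments.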

[1] = second compound 0.0316 µM, first compound 0.0316 µM
[2] = second compound 0.0316 µM, first compound 0.1 µM
[3] = second compound 0.0316 µM, first compound 0.316 µM
[4] = second compound 0.0316 µM, first compound 1 µM
[5] = second compound 0.0316 µM, first compound 3.16 µM
[6] = second compound 0.0316 µM, first compound 10 µM
[7] = second compound 0.1 µM, first compound 0.0316 µM
[8] = second compound 0.1 µM, first compound 0.1 µM
[9] = second compound 0.1 µM, first compound 0.316 µM
[10] = second compound 0.1 µM, first compound 1 µM
[11] = second compound 0.1 µM, first compound 3.16 µM
[12] = second compound 0.1 µM, first compound 10 µM
[13] = second compound 0.316 µM, first compound 0.0316 µM
[14] = second compound 0.316 µM, first compound 0.1 µM
[15] = second compound 0.316 µM, first compound 0.316 µM
[16] = second compound 0.316 µM, first compound 1 µM
[17] = second compound 0.316 µM, first compound 3.16 µM
[18] = second compound 0.316 µM, first compound 10 µM
[19] = second compound 1 µM, first compound 0.0316 µM
[20] = second compound 1 µM, first compound 0.1 µM
[21] = second compound 1 µM, first compound 0.316 µM
[22] = second compound 1 µM, first compound 1 µM
[23] = second compound 1 µM, first compound 3.16 µM
[24] = second compound 1 µM, first compound 10 µM
[25] = second compound 3.16 µM, first compound 0.0316 µM
[26] = second compound 3.16 µM, first compound 0.1 µM
[27] = second compound 3.16 µM, first compound 0.316 µM
[28] = second compound 3.16 µM, first compound 1 µM
[29] = second compound 3.16 µM, first compound 3.16 µM
[30] = second compound 3.16 µM, first compound 10 µM
[31] = second compound 10 µM, first compound 0.0316 µM
[32] = second compound 10 µM, first compound 0.1 µM
[33] = second compound 10 µM, first compound 0.316 µM
[34] = second compound 10 µM, first compound 1 µM
[35] = second compound 10 µM, first compound 3.16 µM
[36] = second compound 10 µM, first compound 10 µM
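Note: spheroids exposed to compounds for one week before readout.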
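Throughout, for viability, T/C: percent viability relative to DMSO vehicle wells taken as 100%.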

COc1ccc([C@@H](O)c2cc(-c3ncnc4cc(N5CCOCC5)ccc34)c(F)cc2Cl)nn1 + CN(C)c1ccc(Nc2c3ccc(NC(=O)CCN4CCCC4)cc3nc3cc(NC(=O)CCN4CCCC4)ccc23)cc1
IC50 (second compound 0.0316 µM): 5630 nM
IC50 (second compound 0.1 µM): 4160 nM
IC50 (second compound 0.316 µM): 2040 nM
IC50 (second compound 1 µM): 114 nM
IC50 (second compound 3.16 µM): < 31.6 nM
IC50 (second compound 10 µM): < 31.6 nM
viability, T/C [1]: 111%
viability, T/C [2]: 108%
viability, T/C [3]: 94%
viability, T/C [4]: 89.4%
viability, T/C [5]: 67.4%
viability, T/C [6]: 33.1%
viability, T/C [7]: 104%
viability, T/C [8]: 97.5%
viability, T/C [9]: 104%
viability, T/C [10]: 82%
viability, T/C [11]: 57%
viability, T/C [12]: 31%
viability, T/C [13]: 85.2%
viability, T/C [14]: 76.3%
viability, T/C [15]: 71.6%
viability, T/C [16]: 61%
viability, T/C [17]: 43.5%
viability, T/C [18]: 21.9%
viability, T/C [19]: 57.5%
viability, T/C [20]: 42.6%
viability, T/C [21]: 47.9%
viability, T/C [22]: 42.5%
viability, T/C [23]: 28.8%
viability, T/C [24]: 12.8%
viability, T/C [25]: 22.4%
viability, T/C [26]: 24.1%
viability, T/C [27]: 32.2%
viability, T/C [28]: 15.5%
viability, T/C [29]: 8.93%
viability, T/C [30]: 6.58%
viability, T/C [31]: 12.8%
viability, T/C [32]: 15%
viability, T/C [33]: 3.27%
viability, T/C [34]: 5.49%
viability, T/C [35]: 11.5%
viability, T/C [36]: 1.01%

Cc1cccc(N(C)C(=O)C2C(O)CCN2c2nc(C)cc(C(F)(F)F)c2C#N)c1 (stereo not given) + Cc1cnc(CNC(=O)c2c(=O)c3ccc(N4CCCN(C)CC4)nc3n3c2sc2ccccc23)cn1
IC50 (second compound 0.0316 µM): > 10000 nM
IC50 (second compound 0.1 µM): > 10000 nM
IC50 (second compound 0.316 µM): 4450 nM
IC50 (second compound 1 µM): < 31.6 nM
IC50 (second compound 3.16 µM): < 31.6 nM
IC50 (second compound 10 µM): < 31.6 nM
viability, T/C [1]: 118%
viability, T/C [2]: 81.9%
viability, T/C [3]: 89.3%
viability, T/C [4]: 84.5%
viability, T/C [5]: 85.2%
viability, T/C [6]: 80.2%
viability, T/C [7]: 78.7%
viability, T/C [8]: 58.7%
viability, T/C [9]: 62.3%
viability, T/C [10]: 74%
viability, T/C [11]: 56%
viability, T/C [12]: 61.2%
viability, T/C [13]: 41.6%
viability, T/C [14]: 83.8%
viability, T/C [15]: 48%
viability, T/C [16]: 43.2%
viability, T/C [17]: 64%
viability, T/C [18]: 35.5%
viability, T/C [19]: 38.2%
viability, T/C [20]: 29.7%
viability, T/C [21]: 37.7%
viability, T/C [22]: 28.5%
viability, T/C [23]: 37.9%
viability, T/C [24]: 30.1%
viability, T/C [25]: 25.4%
viability, T/C [26]: 22.3%
viability, T/C [27]: 16.1%
viability, T/C [28]: 18.2%
viability, T/C [29]: 28.9%
viability, T/C [30]: 33.5%
viability, T/C [31]: 33.2%
viability, T/C [32]: 35.5%
viability, T/C [33]: 24.4%
viability, T/C [34]: 42.2%
viability, T/C [35]: 28.8%
viability, T/C [36]: 52.6%

C#Cc1c(F)ccc2cc(O)cc(-c3ncc4c(N5CC6CCC(C5)N6)nc(OCC56CCCN5CC(F)C6)nc4c3F)c12 (stereo not given) + CN(C)c1ccc(Nc2c3ccc(NC(=O)CCN4CCCC4)cc3nc3cc(NC(=O)CCN4CCCC4)ccc23)cc1
IC50 (second compound 0.0316 µM): 5660 nM
IC50 (second compound 0.1 µM): 5140 nM
IC50 (second compound 0.316 µM): 1010 nM
IC50 (second compound 1 µM): < 31.6 nM
IC50 (second compound 3.16 µM): < 31.6 nM
IC50 (second compound 10 µM): < 31.6 nM
viability, T/C [1]: 111%
viability, T/C [2]: 90.8%
viability, T/C [3]: 106%
viability, T/C [4]: 107%
viability, T/C [5]: 68%
viability, T/C [6]: 32.4%
viability, T/C [7]: 91.3%
viability, T/C [8]: 98.9%
viability, T/C [9]: 89.5%
viability, T/C [10]: 86.2%
viability, T/C [11]: 64.8%
viability, T/C [12]: 29.6%
viability, T/C [13]: 72.7%
viability, T/C [14]: 74.4%
viability, T/C [15]: 62.9%
viability, T/C [16]: 49.9%
viability, T/C [17]: 47.9%
viability, T/C [18]: 42.1%
viability, T/C [19]: 46.9%
viability, T/C [20]: 35%
viability, T/C [21]: 27.5%
viability, T/C [22]: 19.7%
viability, T/C [23]: 17.1%
viability, T/C [24]: 0.42%
viability, T/C [25]: 5.12%
viability, T/C [26]: 2.52%
viability, T/C [27]: 4.56%
viability, T/C [28]: 2.64%
viability, T/C [29]: 1.07%
viability, T/C [30]: 0.36%
viability, T/C [31]: 0.32%
viability, T/C [32]: 0.73%
viability, T/C [33]: 0.29%
viability, T/C [34]: 0.39%
viability, T/C [35]: 0.24%
viability, T/C [36]: 0.39%

C=CC(=O)N1CCN(c2nc(=O)n(-c3c(C)ccnc3C(C)C)c3nc(-c4c(O)cccc4F)c(F)cc23)C(C)C1 (stereo not given) + Cc1cnc(CNC(=O)c2c(=O)c3ccc(N4CCCN(C)CC4)nc3n3c2sc2ccccc23)cn1
IC50 (second compound 0.0316 µM): > 10000 nM
IC50 (second compound 0.1 µM): 8780 nM
IC50 (second compound 0.316 µM): 4430 nM
IC50 (second compound 1 µM): 153 nM
IC50 (second compound 3.16 µM): < 31.6 nM
IC50 (second compound 10 µM): < 31.6 nM
viability, T/C [1]: 101%
viability, T/C [2]: 84.2%
viability, T/C [3]: 101%
viability, T/C [4]: 92.8%
viability, T/C [5]: 86.2%
viability, T/C [6]: 65%
viability, T/C [7]: 79.1%
viability, T/C [8]: 88.6%
viability, T/C [9]: 91%
viability, T/C [10]: 95.8%
viability, T/C [11]: 70.1%
viability, T/C [12]: 47.5%
viability, T/C [13]: 65.7%
viability, T/C [14]: 68.7%
viability, T/C [15]: 54.4%
viability, T/C [16]: 63.7%
viability, T/C [17]: 46.9%
viability, T/C [18]: 47.3%
viability, T/C [19]: 59.1%
viability, T/C [20]: 61.9%
viability, T/C [21]: 31.9%
viability, T/C [22]: 27.4%
viability, T/C [23]: 30.9%
viability, T/C [24]: 14.8%
viability, T/C [25]: 21.3%
viability, T/C [26]: 21.2%
viability, T/C [27]: 41.6%
viability, T/C [28]: 12.3%
viability, T/C [29]: 13.8%
viability, T/C [30]: 14.6%
viability, T/C [31]: 22%
viability, T/C [32]: 63.3%
viability, T/C [33]: 22.2%
viability, T/C [34]: 13.2%
viability, T/C [35]: 35.4%
viability, T/C [36]: 6.85%

O=C(NO)c1cnc(N2CCN(S(=O)(=O)c3ccc4ccccc4c3)CC2)nc1 + Cc1cnc(CNC(=O)c2c(=O)c3ccc(N4CCCN(C)CC4)nc3n3c2sc2ccccc23)cn1
IC50 (second compound 0.0316 µM): 109 nM
IC50 (second compound 0.1 µM): < 31.6 nM
IC50 (second compound 0.316 µM): < 31.6 nM
IC50 (second compound 1 µM): < 31.6 nM
IC50 (second compound 3.16 µM): < 31.6 nM
IC50 (second compound 10 µM): < 31.6 nM
viability, T/C [1]: 82.5%
viability, T/C [2]: 53.5%
viability, T/C [3]: 7.38%
viability, T/C [4]: 0.63%
viability, T/C [5]: 0.05%
viability, T/C [6]: 0.08%
viability, T/C [7]: 47.2%
viability, T/C [8]: 41.8%
viability, T/C [9]: 6.03%
viability, T/C [10]: 0.12%
viability, T/C [11]: 0.03%
viability, T/C [12]: 0.29%
viability, T/C [13]: 44.2%
viability, T/C [14]: 45.2%
viability, T/C [15]: 5.28%
viability, T/C [16]: 0.07%
viability, T/C [17]: 0.02%
viability, T/C [18]: 0.62%
viability, T/C [19]: 43.9%
viability, T/C [20]: 15.2%
viability, T/C [21]: 2.02%
viability, T/C [22]: 0.07%
viability, T/C [23]: 0.04%
viability, T/C [24]: 0.08%
viability, T/C [25]: 8.49%
viability, T/C [26]: 0.73%
viability, T/C [27]: 1.12%
viability, T/C [28]: 1.06%
viability, T/C [29]: 0.08%
viability, T/C [30]: 0.11%
viability, T/C [31]: 0.07%
viability, T/C [32]: 0.11%
viability, T/C [33]: 0.16%
viability, T/C [34]: 0.1%
viability, T/C [35]: 0.18%
viability, T/C [36]: 0.18%
